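Growth conditions: 96-well plates. Treatment: test compound, 48 hours, 5 concentrations. Analysis: linear interpolation between bracketing concentrations; unreached endpoints set to highest concentration. GI50 marks 50% less growth. TGI is the concentration that stops growth completely.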
What was measured:
Assay in all cases: NCI anticancer screen, dose series, 48 h
[1] = system: TK-10 renal
[2] = system: UACC-62 melanoma
[3] = system: HCT-15 colon
[4] = system: EKVX NSCLC
[5] = system: UO-31 renal
[6] = system: CAKI-1 renal
[7] = system: MOLT-4 leukemia
[8] = system: NCI-H226 lung
[9] = system: SNB-19 CNS
[10] = system: NCI/ADR-RES ovarian

| SMILES | TGI [1] | TGI [2] | TGI [3] | TGI [4] | TGI [5] | TGI [6] | TGI [7] | TGI [8] | TGI [9] | GI50 [1] | GI50 [2] | GI50 [3] | GI50 [4] | GI50 [5] | GI50 [6] | GI50 [7] | GI50 [8] | GI50 [9] | GI50 [10] | TGI [10] |
| --- | --- | --- | --- | --- | --- | --- | --- | --- | --- | --- | --- | --- | --- | --- | --- | --- | --- | --- | --- | --- |
| Cc1cc(C)c(C(=O)c2no[n+]([O-])c2C(=O)c2c(C)cc(C)c(Br)c2C)c(C)c1Br | 26.5 µM | 23.7 µM | 30 µM | 24.4 µM | 20.2 µM | 44.8 µM | 20.2 µM | 31.6 µM | 29.1 µM | – | – | – | – | – | – | – | – | – | – | – |
| CN1CC[C@]2(C)c3ccc(O)cc3CC3CCCC1C32C (stereo partly specified) | > 100 µM | > 100 µM | > 100 µM | > 100 µM | > 100 µM | > 100 µM | > 100 µM | > 100 µM | > 100 µM | – | – | – | – | – | – | – | – | – | – | – |
| NC(=S)NNc1c([N+](=O)[O-])cnn(-c2ccccc2)c1=O | 46.6 µM | 24.4 µM | 32 µM | – | 38 µM | 33.9 µM | 62.5 µM | 35 µM | 33.9 µM | – | – | – | – | – | – | – | – | – | – | – |
| CC[C@]1(O)C(=O)OCc2c1cc1n(c2=O)Cc2cc3c(N)cccc3nc2-1 | > 100 µM | > 100 µM | > 100 µM | > 100 µM | > 100 µM | > 100 µM | > 100 µM | > 100 µM | > 100 µM | – | – | – | – | – | – | – | – | – | – | – |
| CC[O-].CC[O-].O=S(=O)([O-])c1ccc([O-])c2ncccc12.O=S(=O)([O-])c1ccc([O-])c2ncccc12.[Ti+4] | > 100 µM | > 100 µM | > 100 µM | > 100 µM | > 100 µM | > 100 µM | > 100 µM | > 100 µM | > 100 µM | > 100 µM | 66.2 µM | > 100 µM | > 100 µM | 74.4 µM | > 100 µM | 37.2 µM | > 100 µM | 58.3 µM | – | – |
| NCCCCNc1ccc2c(=O)[nH][nH]c(=O)c2c1 | > 100 µM | > 100 µM | – | > 100 µM | > 100 µM | > 100 µM | > 100 µM | > 100 µM | > 100 µM | – | – | – | – | – | – | – | – | – | – | – |
| C/C=C/C=C/C=C/C=C/C(=O)O | – | > 100 µM | > 100 µM | > 100 µM | > 100 µM | > 100 µM | > 100 µM | > 100 µM | > 100 µM | – | – | – | – | – | – | – | – | – | – | – |
| Cc1ccccc1C1=C(C(=O)Nc2ccc(Cl)c(Cl)c2)NC(=S)NC1N (stereo unspecified) | > 100 µM | > 100 µM | > 100 µM | > 100 µM | > 100 µM | > 100 µM | > 100 µM | – | > 100 µM | – | – | – | – | – | – | – | – | – | – | – |
| O=C(N/N=C(/CCN1CCCC1)CC(c1ccccc1)c1c(O)c2ccccc2oc1=O)c1ccncc1 (stereo unspecified) | > 100 µM | > 100 µM | > 100 µM | > 100 µM | > 100 µM | > 100 µM | – | > 100 µM | > 100 µM | – | – | – | – | – | – | – | – | – | – | – |
| CCOC(=O)c1cc(/C=C/C(C)=C/C(=O)OC)oc1C | > 100 µM | > 100 µM | > 100 µM | > 100 µM | > 100 µM | > 100 µM | > 100 µM | – | > 100 µM | – | – | – | – | – | – | – | – | – | – | – |
| COc1ccc(-c2ccc(-c3ccc(C(=N)N)cn3)o2)cc1 | 22.7 µM | 22.9 µM | 17.7 µM | – | 17.3 µM | 20.7 µM | 15.5 µM | 29.5 µM | 24.6 µM | 10.7 µM | 10.3 µM | 4.62 µM | – | 2.68 µM | 6.79 µM | 4.4 µM | 12.8 µM | 11.7 µM | 14.1 µM | 30.7 µM |
